# Measured values taken from US6495594B2, “Biologically active analogs of discodermolide” (Harbor Branch Oceanographic Institution, Inc., priority 2000, dated 2002).
# pIC50: −log10 of the molar value. Entries after “also recorded” stand apart in the source; their conditions may differ.
# Tests used:
# A549 human lung cells = experiment: Cell cycle progression by flow cytometry; assay type: cell-based; conditions: for Cell cycle effects (100 nM): 24 hr, A549
# Description: Cell cycle studies were initiated in order to pinpoint a specific phase within the cell cycle in which discodermolide analogs were exerting their antiproliferative effect. A549 human lung cells were used as cell cycle targets to compare the effects of discodermolide and discodermolide analogs on perturbation of the cell cycle. Cell cycle analyses were performed as follows: A549 cells were incubated at 37° C. in 5% CO2 in air in the presence or absence of varying concentrations of discodermolide or discodermolide analogs for 24 hr. Cells were harvested, fixed in ethanol, washed, and stained with 0.02 mg/mL of propidium iodide (P.I.) together with 0.1 mg/mL of RNAse A. Stained preparations were analyzed on a Coulter EPICS ELITE flow cytometer with 488 nm excitation. Fluorescence measurements and resulting DNA histograms were collected from at least 10,000 P.I. stained cells at an emission wavelength of 690 nm. Raw histogram data was further analyzed using a cell cycle analysis program (Multicycle, Phoenix Flow Systems).
# [1] = test system: P388 murine leukemia cell lines; experiment: In vitro proliferation of P388 cells (MTT); assay type: cell-based; conditions: 48-h exposure; for pIC50: value in parentheses
# Description: Discodermolide and discodermolide analogs were analyzed as to their effects on proliferation of A549 human adenocarcinoma and P388 murine leukemia cell lines. P388 cells were obtained from Dr. R. Camalier, National Cancer Institute, Bethesda, MD, and A549 cells were obtained from American Type Culture Collection, Rockville, MD. All cell lines were maintained in tissue culture medium (TCM; Roswell Park Memorial Institute RPMI 1640 supplemented with 100 U/mL penicillin, […], 60 […], 18 mM HEPES, 0.05 mg/mL gentamicin (Life Technologies, Gaithersburg, MD) and 10% fetal bovine serum) and cultured in plastic tissue culture flasks at 37° C. in humidified air containing 5% CO2. Stock cultures of P388 cells were subcultured 1:20 in fresh TCM every 2 to 3 days. Stock cultures of A549 cells were subcultured 1:10 every 3 to 4 days. To assess the antiproliferative effects of agents against the cells, 200 μL cultures (96-well tissue culture plates, Nunc, Denmark) were established at 1 ×10^5 cells/mL in TCM or TCM containing the test agent at 0.03-5.0 μg/mL. After 48-h exposures, P388 cells were enumerated using 3-[4,5-dimethylthiazol-2-yl]-2,5-diphenyltetrazolium bromide (MTT) as described in the literature (M. C. Alley, et al., Cancer Res. 48:589, 1988). A549 cells were enumerated in the same manner after 72 hours exposure. The results were expressed as percent inhibition compared to the negative (no drug) control. Positive drug controls of varying dilutions of 5-fluorouracil and adriamycin (Sigma Chemical Co., St Louis, MO) were included to monitor drug sensitivity of the cell line.
# To quantitate the effects on cell proliferation and resulting IC50 values, 75 μL of warm growth media containing 5 mg/mL MTT is added to each well, cultures returned to the incubator, and left undisturbed for 3 hours. To spectrophotometrically quantitate formation of reduced formazan, plates are centrifuged (500×g, 10 minutes), culture fluids removed by aspiration, and 200 μL of acidified isopropanol (2 mL concentrated HCl /liter isopropanol) added per well. The absorbance of the resulting solutions is measured in a plate reader (TECAN Spectra SLT; TECAN U.S., Research Triangle Park, N.C.) at 570 nm and a 650 nm reference filter. The absorbance of test wells is divided by the absorbance of drug-free wells, and the concentration of agent that results in 50% of the absorbance of untreated cultures (IC50) is determined by linear regression of logit-transformed data (D. J. Finney, Statistical Method in Biological Assay, third ed., pp. 316-348, Charles Griffin Co., London, 1978). A linear relationship between tumor cell number and formazan production has been routinely observed over the range of cell densities observed in these experiments. The two standard drug controls (indicated above) are included in each assay as a check to monitor the drug sensitivity of each of the cell lines and IC50 values are determined for each drug-cell combination.
# [2] = test system: A549 human adenocarcinoma tumor cells; experiment: Microtubule bundling patterns in tumor cells by immunofluorescence; assay type: cell-based; parameters: key to Microtubule bundling in A549 cells: −: no effect; +/−: minimal or questionable effect; +: weak effect; ++: strong effect; +++: very strong effect equivalent to discodermolide; conditions: for Microtubule bundling in A549 cells: subjective rating versus discodermolide, Table 12
# Description: Discodermolide and discodermolide analogs were evaluated as to their effects on the morphology of the microtubule network of cells using mouse anti-alpha-tubulin monoclonal antibody.
# On day one, 7×10^4 adherent A549 human adenocarcinoma tumor cells were cultured in TCM overnight at 37° C. in 5% CO2 on 22 mm^2 cover slips in 6-well microtiter plates. On day two, TCM was removed and replaced with 10-1000 nM discodermolide or analog in TCM or TCM without drug (control) and incubated overnight at 37° C. in 5% CO2. On day three, TCM was removed and cells attached to cover slips were fixed with a 3.7% formaldehyde solution in Dulbecco's PBS for 10 minutes at room temperature. Cells were permeabilized with a 2% Triton X-100 solution, 2 mL per well, for 5 minutes at room temperature and washed twice in Dulbecco's PBS prior to staining.
# To each well containing cells attached to cover slips a 2 mL volume of mouse anti- alpha-tubulin monoclonal antibody (Cat# T-5168, Sigma Chemical Co., St. Louis, Mo.) diluted 1:1000 in Dulbecco's phosphate buffered saline (D-PBS) was added and the cells incubated at room temperature for 45 minutes. Cover slips were rinsed once with D-PBS. A 2 mL volume of goat-anti-mouse-IgG-FITC conjugated antibody (Cat# T-5262, Sigma Chemical Co., St. Louis, Mo.) diluted 1:1000 in D-PBS was added and the cells incubated at room temperature for 45 minutes. Cover slips were rinsed once in D-PBS and DNA was stained with 0.02 mg/mL propidium iodide together with 0.1 mg/mL of ribonuclease A (RNAse) A in D-PBS at 37° C. for 30 minutes. Cover slips were rinsed three times with sterile distilled water, air-dried and mounted on slides with SlowFade™ antifade solution (Molecular Probes, Eugene, Oreg.) and observed under the microscope using epifluorescence illumination for the presence of abnormal aster and microtubule bundle formations.
# [3] = see U.S. Pat. No. 6,127,406; cited from earlier work
structure (smiles),measurement,setting,value
C=CC=CC(C)C(OC(N)=O)C(C)C(O)C(C)CC(C)=CC(C)C(O)C(C)C=CC(CC1OC(=O)C(C)=CC1C)OC(=O)CCC(=O)O (stereo not shown) [3-deoxy-2Δ-discodermolide-7-succinate],Cell cycle effects,A549 human lung cells; 10 nM,indistinguishable from the untreated (control) cells
same,Cell cycle effects (100 nM),A549 human lung cells,indistinguishable from the untreated (control) cells
same,Cell cycle effects,A549 human lung cells; 1000 nM,indistinguishable from the untreated (control) cells
same,Cell cycle effects,A549 human lung cells; 3000 nM (highest concentration tested),no cell cycle effects were noted; also recorded: slight induction of apoptosis and a general necrosis
same,IC50 P388 cells,[1],>5 µg/mL
same,pIC50,[1],< 5.13
same,Microtubule bundling observation,[2]; 10 nM,indistinguishable from that of the untreated (control) cells
same,Microtubule bundling observation,[2]; 100 nM,indistinguishable from that of the untreated (control) cells
same,Microtubule bundling observation,[2]; 1000 nM,no bundling
same,Microtubule bundling in A549 cells,[2],−
"CCCCC(C)C(OC(N)=O)C(C)C(OC(C)=O)C(C)CC(C)=CC(C)C(OC(C)=O)C(C)CCCCC1OC(=O)C(C)C(OC(C)=O)C1C (stereo not shown) [7-deoxy-8,21,23-hexahydrodiscodermolide-3,11,17-triacetate]",Cell cycle effects,A549 human lung cells; 10 nM,No cell cycle effects were noted
same,Cell cycle effects (100 nM),A549 human lung cells,No cell cycle effects were noted
same,Cell cycle effects,A549 human lung cells; 1000 nM,No cell cycle effects were noted
same,IC50 P388 cells,[1],>5 µg/mL
same,pIC50,[1],< 5.12
same,Microtubule bundling observation,[2]; 10 nM through 1000 nM,no bundling seen
same,Microtubule bundling in A549 cells,[2],−
"C=CC=CC(C)C(OC(N)=O)C(C)C(OC(C)=O)C(C)CC(C)=CC(C)C(OC(C)=O)C(C)C=CC(CC1OC(=O)C(C)C(OC(C)=O)C1C)OC(C)=O (stereo not shown) [discodermolide-3,7,11,17-tetraacetate]",Cytotoxicity compared to the parent molecule,[3],dramatic reduction in the activity
"C=CC=CC(C)C(OC(N)=O)C(C)C(O)C(C)CC(C)=CC(C)C(OC(C)=O)C(C)C=CC(CC1OC(=O)C(C)C(OC(C)=O)C1C)OC(C)=O (stereo not shown) [discodermolide-3,7,11-triacetate]",Cytotoxicity compared to the parent molecule,[3],reduced cytotoxicity
"C=CC=CC(C)C(OC(N)=O)C(C)C(OC(C)=O)C(C)CC(C)=CC(C)C(O)C(C)C=CC(CC1OC(=O)C(C)C(OC(C)=O)C1C)OC(C)=O (stereo not shown) [discodermolide-3,7,17-triacetate]",Cytotoxicity compared to the parent molecule,[3],dramatic reduction in the activity
"C=CC=CC(C)C(OC(N)=O)C(C)C(O)C(C)CC(C)=CC(C)C(O)C(C)C=CC(CC1OC(=O)C(C)C(OC(C)=O)C1C)OC(C)=O (stereo not shown) [discodermolide-3,7-diacetate]",Cytotoxicity compared to the parent molecule,[3],greater cytotoxicity
"C=CC=CC(C)C(OC(N)=O)C(C)C(O)C(C)CC(C)=CC(C)C(OC(C)=O)C(C)C=CC(O)CC1OC(=O)C(C)C(OC(C)=O)C1C (stereo not shown) [discodermolide-3,11-diacetate]",Cytotoxicity compared to the parent molecule,[3],reduced cytotoxicity
"C=CC=CC(C)C(OC(N)=O)C(C)C(OC(C)=O)C(C)CC(C)=CC(C)C(O)C(C)C=CC(O)CC1OC(=O)C(C)C(OC(C)=O)C1C (stereo not shown) [discodermolide-3,17-diacetate]",Cytotoxicity compared to the parent molecule,[3],dramatic reduction in the activity
C=CC=CC(C)C(OC(N)=O)C(C)C(O)C(C)CC(C)=CC(C)C(O)C(C)C=CC(O)CC1OC(=O)C(C)C(OC(C)=O)C1C (stereo not shown) [discodermolide-3-acetate],Cytotoxicity compared to the parent molecule,[3],greater cytotoxicity
C=CC=CC(C)C(OC(N)=O)C(C)C(O)C(C)CC(C)=CC(C)C(O)C(C)C=CC(CC1OC(=O)C(C)C(O)C1C)OC(C)=O (stereo not shown) [discodermolide-7-acetate],Cytotoxicity compared to the parent molecule,[3],greater cytotoxicity
